Where two headings read alike, the source gives them in different places.
Tests used:
[1] = target: KRas (Homo sapiens (Human), UniProt P01116); experiment: KRas GDP HTRF (BODIPY-GDP exchange TR-FRET); type: biochemical
In short: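 Inhibition of SOS1-mediated exchange of BODIPY-GDP on KRAS G12D, started with 3 nM recombinant human SOS1 and 300 nM BODIPY-GDP and read after 60 min. TR-FRET excitation 337 nm, ratio 520/490 nm ×10,000. IC50 from 4-parameter Hill fit of normalized data.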

[2] = system: PC-9 cells; experiment: PC9 proliferation assay; type: cell-based, human; settings: read-out: PC9 Prolif IC50 (G12V)
[3] = system: SW480 cells; experiment: SW480 proliferation assay; type: cell-based; settings: read-out: SW480 Prolif IC50 (G12V)
[4] = target: KRas(G12V) (Homo sapiens (Human), UniProt P01116, G12V); experiment: KRas(G12V) GDP HTRF (BODIPY-GDP exchange TR-FRET); type: biochemical
Sequence of KRas(G12V) (P01116-2 other isoform, or with tags, fused parts or gaps G12V): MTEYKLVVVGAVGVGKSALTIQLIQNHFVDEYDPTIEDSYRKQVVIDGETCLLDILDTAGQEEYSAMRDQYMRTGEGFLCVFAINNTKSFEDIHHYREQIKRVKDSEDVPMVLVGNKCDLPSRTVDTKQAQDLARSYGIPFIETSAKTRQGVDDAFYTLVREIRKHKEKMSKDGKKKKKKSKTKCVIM

Sequence of KRas (P01116-2 other isoform, or with tags, fused parts or gaps): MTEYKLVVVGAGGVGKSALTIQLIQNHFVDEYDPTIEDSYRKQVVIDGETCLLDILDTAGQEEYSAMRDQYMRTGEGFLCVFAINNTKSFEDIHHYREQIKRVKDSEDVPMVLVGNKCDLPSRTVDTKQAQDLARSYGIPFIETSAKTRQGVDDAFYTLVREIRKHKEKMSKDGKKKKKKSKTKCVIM

Structure (SMILES)	IC50 [1]	IC50 ([2]; Homo sapiens, PC-9, PC9)	IC50 ([3]; Homo sapiens, SW480, SW480)	IC50 [4]	IC50 ([2]; PC9)	IC50 ([3]; SW480)
Cc1cc(N)nc(-c2c(Cl)c3c4c(nc(OC[C@@H]5C[C@@H](F)CN5C)nc4c2F)N([C@@H]2CCCc4ccnc(N)c42)CCO3)c1C(F)(F)F (atropisomer, axis not shown) [Example 132, (R)-8-((R)-9-(6-amino-4-methyl-3-(trifluoromethyl)pyridin-2-yl)-8-chloro-10-fluoro-2-(((2S,4R)-4-fluoro-1-methylpyrrolidin-2-yl)methoxy)-5,6-dihydro-4H-[1,4]oxazepino[5,6,7-de]quinazolin-4-yl)-5,6,7,8-tetrahydroisoquinolin-1-amine]	0.273 nM	3.2 µM	39 nM	0.13 nM		
Cc1cc(N)nc(-c2c(Cl)c3c4c(nc(OC[C@@]56CCCN5C[C@H](F)C6)nc4c2F)N([C@H](C)c2cccnc2N)CCO3)c1C(F)(F)F (atropisomer, axis not shown; (aS)) [Example 107, (S)-6-(4-((R)-1-(2-aminopyridin-3-yl)ethyl)-8-chloro-10-fluoro-2-(((2R,7aS)-2-fluorotetrahydro-1H-pyrrolizin-7a(5H)-yl)methoxy)-5,6-dihydro-4H-[1,4]oxazepino[5,6,7-de]quinazolin-9-yl)-4-methyl-5-(trifluoromethyl)pyridin-2-amine]	240 nM			90 nM	4 µM	560 nM
Cc1cc(N)nc(-c2cc3nc(OC[C@@]45CCCN4C[C@H](F)C5)nc4c3c(c2Cl)OCCN4Cc2cccnc2N)c1C(F)(F)F [Example 60, 6-(4-((2-aminopyridin-3-yl)methyl)-8-chloro-2-(((2R,7aS)-2-fluorotetrahydro-1H-pyrrolizin-7a(5H)-yl)methoxy)-5,6-dihydro-4H-[1,4]oxazepino[5,6,7-de]quinazolin-9-yl)-4-methyl-5-(trifluoromethyl)pyridin-2-amine]	0.48 nM	2.7 µM	230 nM	0.42 nM		
Cc1cc(N)nc(-c2c(Cl)c3c4c(nc(OCC5CCN(S(C)(=O)=O)CC5)nc4c2F)N([C@H](C)c2cccnc2N)CCO3)c1C(F)(F)F (atropisomer, axis not shown) [Example 148, 6-((R)-4-((R)-1-(2-aminopyridin-3-yl)ethyl)-8-chloro-10-fluoro-2-((1-(methylsulfonyl)piperidin-4-yl)methoxy)-5,6-dihydro-4H-[1,4]oxazepino[5,6,7-de]quinazolin-9-yl)-4-methyl-5-(trifluoromethyl)pyridin-2-amine]	3.6 nM	9.6 µM	410 nM	1.1 nM		
Cc1cc(N)nc(-c2c(Cl)c3c4c(nc(OC[C@@H]5CC[C@H]6COCCCN65)nc4c2F)N([C@H](C)c2cccnc2N)CCO3)c1C(F)(F)F (atropisomer, axis not shown; (aS)) [Example 120a, 6-((R)-4-((R)-1-(2-aminopyridin-3-yl)ethyl)-8-chloro-10-fluoro-2-(((7S,9aS)-hexahydro-1H,3H-pyrrolo[2,1-c][1,4]oxazepin-7-yl)methoxy)-5,6-dihydro-4H-[1,4]oxazepino[5,6,7-de]quinazolin-9-yl)-4-methyl-5-(trifluoromethyl)pyridin-2-amine]	0.2 nM	2.5 µM	28 nM	0.07 nM		
Cc1cc(N)nc(-c2c(Cl)c3c4c(nc(OC[C@]5(C)CC(F)(F)CN5C)nc4c2F)N([C@H](C)c2cccnc2N)CCO3)c1C(F)(F)F (atropisomer, axis not shown) [Example 122a, 6-((R)-4-((R)-1-(2-aminopyridin-3-yl)ethyl)-8-chloro-2-(((S)-4,4-difluoro-1,2-dimethylpyrrolidin-2-yl)methoxy)-10-fluoro-5,6-dihydro-4H-[1,4]oxazepino[5,6,7-de]quinazolin-9-yl)-4-methyl-5-(trifluoromethyl)pyridin-2-amine]	4.49 nM	2.9 µM	180 nM	0.5 nM		

From US20240383915A1, “OXAZEPINE COMPOUNDS AND USES THEREOF IN THE TREATMENT OF CANCER” (Genentech, Inc., priority 2021, published 2024)
